Measurements as given in article PMC9555310, “Novel inhibitors and activity-based probes targeting serine proteases” (Frontiers in Chemistry, 2022).
“And” between values parts separate entries of the source, which are not always exact repeats. Equal values may be shown once.

Key:
NE in CF Sol samples = target: T1, NE in CF Sol samples (Homo sapiens, UniProt P08246); experiment: Fluorogenic substrate assay of elastase-like activity in CF Sol; format: biochemical; conditions: 50 μM; CF Sol sample 26w at 2.5% (v/v); PBS pH 7.4, 37°C; 60 min
T1 construct: from tissue; host or cells: Cystic Fibrosis (CF) Sol samples 26w and 41w from patients
T1 sequence (P08246 30-267): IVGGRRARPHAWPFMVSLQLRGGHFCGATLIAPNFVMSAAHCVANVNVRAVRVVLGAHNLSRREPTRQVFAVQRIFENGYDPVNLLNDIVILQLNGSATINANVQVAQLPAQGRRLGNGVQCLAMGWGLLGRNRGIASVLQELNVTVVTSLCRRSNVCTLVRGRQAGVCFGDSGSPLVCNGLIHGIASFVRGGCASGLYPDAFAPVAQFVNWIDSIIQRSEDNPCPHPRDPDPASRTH
Protocol: FIGURE 7 Activity Based Profiling of serine proteases by peptide N-Alkyl glycine carbamates. (A,B) record the results for the incubation of NE with NAP800 and chymotrypsin with NAP849. NE and Chymotrypsin were treated (±) with NAP800 and NAP849, respectively (± pre-heat inactivation at 95°C, for 10 min), for 30 min, at 37°C. (C) Determination of NE levels in CF samples using fluorogenic substrate assay. NE assays were carried out in PBS, pH 7.4, at 37°C. CF Sol (sample 26w) was used at a final concentration of 2.5% (v/v), and the level of NE contained therein was measured using Succinyl-Ala-Ala-Pro-Val-NHMec (50 μM), in the absence (-- o --) and presence (-- o --) of NAP800 (50 μM). (D) Activity based profiling of CF Sol using NAP800. CF Sol samples 26w and 41w were treated (+) with 50 μM NAP800 (+ pre-heat inactivation at 95°C, for 10 min), for 30 min, at 37°C.
Initially, as a quick screen, a fluorogenic enzyme assay was performed on CF Sol samples, using the elastase fluorogenic substrate MeO-Succinyl-Ala-Ala-Pro-Val-NHMec, the results of one such experiment (performed on sample 26w) is recorded in Figure 7C.

chymotrypsin = target: T2, chymotrypsin (Bos taurus, UniProt P00766); experiment: Irreversible inhibition kinetics of chymotrypsin (fluorogenic substrate progress curves); format: biochemical, bovine
T2 construct: purchased Sigma-Aldrich (supplement); Calbiochem; host or cells: bovine pancreas
Protocol: A range of inhibitor concentrations were prepared from a 10 mM stock solution of the test compounds (NAP533, NAP559, NAP800, NAP830, NAP849, and NAP962) in N, N-dimethylformamide (DMF). Recombinant protease activities were assayed using the cognate fluorogenic substrates as follows: trypsin (Z-Gly-Gly-Arg-NHMec), thrombin (Boc-Val-Pro-Arg-NHMec), plasmin (Boc-Val-Leu-Lys-NHMec), human neutrophil elastase (MeO-Succinyl-Ala-Ala-Pro-Val-NHMec), and chymotrypsin (Succinyl-Ala-Ala-Pro-Phe-NHMec). Each substrate was used at a final concentration of 50 μM, in the appropriate buffer for each protease. All inhibition assays were performed in microtiter plates maintained at 37°C in a final volume of 100 μL. The reaction was initiated by the addition of each protease (approx. 0.01 μg/well) and the rate of substrate hydrolysis was recorded continuously at 37°C, over a 60 min period, by measuring the rate of increase in fluorescence (at λex 360 nm, λem 480 nm) using a FLUOstar Optima microplate reader (BMG Labtech).
The resultant inhibition progress curves obtained for each inhibitor were analyzed by the kinetic models developed by [Tian and Tsou (1982)] and [Walker and Elmore (1984)], for irreversible inhibitors, with curve fitting being achieved using GraFit (Erithacus Software), as described previously ([Ferguson et al., 2016]).
FIGURE 4 Progress curves for (A), chymotrypsin-catalysed hydrolysis of Succinyl-Ala-Ala-Pro-Phe-NHMec, in the presence of varying concentrations of NAP849. (B), NE-catalysed hydrolysis of MeO-succinyl-Ala-Ala-Pro-Val-NHMec, in the presence of varying concentrations of NAP800. (C) Trypsin-catalysed of Z-Gly-Gly-Arg-NHMec, in the presence of NAP830. (D) Plasmin-catalysed hydrolysis of Boc-Val-Leu-Lys-NHMec, in the presence of varying concentrations of NAP962. Assays were carried out in PBS, pH 7.4, at 37°C, in the presence of a range of inhibitor concentrations (0.25–50 μM) and a fixed concentration (50 μM) of the appropriate substrate for each protease.
The “product progress” curves for substrate hydrolysis in the presence of an inhibitor (Figure 4) are indicative of the action of irreversible inhibitors operating through the kinetic scheme illustrated in Figure 6. In this scheme, the formation of the reversible enzyme–inhibitor complex (EI) is zcharacterized by the inhibitor constant K i. This is converted into the covalent/irreversible complex (E-I) characterized by a first-order rate constant k 3. The overall second-order rate constant for the inactivation of E by I is given by the ratio k 3/K i ([Walker and Elmore, 1984]; [Tsou, 1988]). […]
Protease inactivation by each of the compounds under study was evaluated using a fluorogenic enzyme assays. […]

Ki (chymotrypsin; Succinyl-Ala-Ala-Pro-Phe-NHMec 50 μM, PBS pH 7.4, 37°C, mean ± SD (n=3))	k 3 (chymotrypsin; first-order rate constant, PBS pH 7.4, 37°C, mean ± SD (n=3))	second-order rate constant relative to the analogous phenylalanine diphenyl phosphonate QUBCL1 (chymotrypsin; fold greater than QUBCL1)	Compound	blockade of MeO-Succinyl-Ala-Ala-Pro-Val-NHMec cleavage in CF Sol (NE in CF Sol samples)	k 3 / K i (chymotrypsin; second-order rate constant of inactivation, PBS pH 7.4, 37°C, mean ± SD (n=3))
			CC(C)N(CC(=O)NCC(=O)NCC(=O)NCCCOCCOCCOCCCNC(=O)CCCCC1SCC2NC(=O)NC21)C(=O)ON1C(=O)CCC1=O (stereo not drawn) [NAP800, Succinimidoyl-CO-NVal-Gly-Gly-PEG-Biotin]	progressive and ultimately complete blockade of substrate cleavage	
890 nM	0.85 (± 0.29) min^−1	approximately ten-fold	O=C(CCCCC1SCC2NC(=O)NC21)NCCCOCCOCCOCCCNC(=O)CNC(=O)CNC(=O)CN(Cc1ccccc1)C(=O)ON1C(=O)CCC1=O (stereo not drawn) [NAP849, Succinimidoyl-CO-NPhe-Gly-Gly-PEG-Biotin]		1.28 × 10^6 M^−1 min^−1 and 1.28 (± 0.44) × 10^6 M^−1 min^−1
